Patent US20220409619A1, “INHIBITORS OF HUMAN IMMUNODEFICIENCY VIRUS REPLICATION” (VIIV HEALTHCARE UK (No. 5) LIMITED, priority 2019, published 2022)
pEC50: −log10 of the molar value. Read-outs that look alike come from different tables or passages of the source.

Key:
Assay type in all cases: cell-based
uninfected MT2 cells = assay: Compound cytotoxicity, XTT-based colorimetric assay; conditions: day 4, XTT-based colorimetric assay
In short: (§1)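 Run under the antiviral-assay protocol but without virus. Viability was read on day 4 and CC50 values were derived from the readout.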

[1] = test system: recombinant NL4-3 virus (nef section replaced with Renilla luciferase gene) in MT-2 cells; assay: HIV cell culture assay (antiviral activity, luciferase readout)
In short: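 MT-2 cells were infected for 4-5 days with 293T-derived NL4-3 Renilla-luciferase reporter virus in the presence of serial compound dilutions. Luciferase was read with EnduRen live-cell substrate. EC50 was fitted with the median effect equation.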

[2] = Compound cytotoxicity, XTT-based colorimetric assay; conditions: human; uninfected MT2 cells, day 4, XTT-based colorimetric assay
In short: as §1

| SMILES | CC50 (uninfected MT2 cells) [nM] | pEC50 ([1]; MT-2 cells infected for 4-5 days with recombinant NL4-3 Renilla luciferase virus, luciferase activity, read-out: EC50) | CC50 at 4 days [2] [nM] | pEC50 ([1]; Renilla, NL43) |
| --- | --- | --- | --- | --- |
| Cn1nc(NS(C)(=O)=O)c2c(Cl)ccc(-n3c([C@H](Cc4cc(F)cc(F)c4)NC(=O)Cn4nc(C(F)F)c5c4C(F)(F)[C@@H]4C[C@H]54)nc(-c4ccc(F)cc4F)cc3=O)c21 [Example 3, N-((S)-1-((1P)-1-(4-chloro-1-methyl-3-(methylsulfonamido)-1H-indazol-7-yl)-4-(2,4-difluorophenyl)-6-oxo-1,6-dihydropyrimidin-2-yl)-2-(3,5-difluorophenyl)ethyl)-2-((3bS,4aR)-3-(difluoromethyl)-5,5-difluoro-3b,4,4a,5-tetrahydro-1H-cyclopropa[3,4]cyclopenta[1,2-c]pyrazol-1-yl)acetamide] | > 100 | 8.77 |  |  |
| CC(C)(C#Cc1cc(=O)n(-c2ccc(Cl)c3c(NS(=O)(=O)C4CC4)nn(CC(F)F)c23)c([C@H](Cc2cc(F)cc(F)c2)NC(=O)Cn2nc(C(F)F)c3c2C(F)(F)[C@@H]2C[C@H]32)n1)S(C)(=O)=O (atropisomer, axis not shown; (P)) [Example 47, N-((S)-1-((1P)-1-(4-chloro-3-(cyclopropanesulfonamido)-1-(2,2-difluoroethyl)-1H-indazol-7-yl)-4-(3-methyl-3-(methylsulfonyl)but-1-yn-1-yl)-6-oxo-1,6-dihydropyrimidin-2-yl)-2-(3,5-difluorophenyl)ethyl)-2-((3bS,4aR)-3-(difluoromethyl)-5,5-difluoro-3b,4,4a,5-tetrahydro-1H-cyclopropa[3,4]cyclopenta[1,2-c]pyrazol-1-yl)acetamide] |  |  | > 100 | 10.33 |
| O=C(Cn1nc(C(F)F)c2c1C(F)(F)[C@@H]1C[C@H]21)N[C@@H](Cc1cc(F)cc(F)c1)c1nc(-c2ncccn2)cc(=O)n1-c1ccc(Cl)c2c(NS(=O)(=O)C3CC3)nn(CC(F)F)c12 (atropisomer, axis not shown; (aR)) [Example 48, N-((S)-1-((1′P)-1′-(4-chloro-3-(cyclopropanesulfonamido)-1-(2,2-difluoroethyl)-1H-indazol-7-yl)-6′-oxo-1′,6′-dihydro-[2,4′-bipyrimidin]-2′-yl)-2-(3,5-difluorophenyl)ethyl)-2-((3bS,4aR)-3-(difluoromethyl)-5,5-difluoro-3b,4,4a,5-tetrahydro-1H-cyclopropa[3,4]cyclopenta[1,2-c]pyrazol-1-yl)acetamide] |  |  | > 100 | 9.74 |
| Cn1nc(NS(C)(=O)=O)c2c(Cl)ccc(-n3c([C@H](Cc4cc(F)cc(F)c4)NC(=O)Cn4nc(C(F)F)c5c4C(F)(F)[C@@H]4C[C@H]54)nc(-c4cccc(F)n4)cc3=O)c21 (atropisomer, axis not shown; (P)) [Example 23, N-((S)-1-((1P)-1-(4-chloro-1-methyl-3-(methylsulfonamido)-1H-indazol-7-yl)-4-(6-fluoropyridin-2-yl)-6-oxo-1,6-dihydropyrimidin-2-yl)-2-(3,5-difluorophenyl)ethyl)-2-((3bS,4aR)-3-(difluoromethyl)-5,5-difluoro-3b,4,4a,5-tetrahydro-1H-cyclopropa[3,4]cyclopenta[1,2-c]pyrazol-1-yl)acetamide] |  |  | > 100 | 9.38 |
